# Source: publication PMC6151560, “Antibacterial and Antitubercular Activities of Cinnamylideneacetophenones” (Molecules : A Journal of Synthetic Chemistry and Natural …, 2017)
# Read-outs that look alike come from different tables or passages of the source.
# Assays:
# [1] = system: Pseudomonas aeruginosa (ATCC 15442); test: Antibacterial broth microdilution (MIC), P. aeruginosa; settings: for MIC: ATCC15442, 24 h, read-out: Pa MIC
# [2] = system: Streptococcus mutans (ATCC 25175); test: Antibacterial broth microdilution (MIC/MBC), S. mutans; settings: for MIC: ATCC25175, 24 h, read-out: Sm MIC, Streptococcus mutans, broth microdilution, 24 h, tested 3.9 to 500 µM; for MBC: ATCC25175, read-out: Sm MBC
# [3] = system: Streptococcus sanguinis (ATCC 10557); test: Antibacterial broth microdilution (MIC/MBC), S. sanguinis; settings: for MIC: ATCC10557, 24 h; for MBC: ATCC10557, read-out: Ss MBC
# [4] = system: Escherichia coli (ATCC 10536); test: Antibacterial broth microdilution (MIC), E. coli; settings: for MIC: ATCC10536, 24 h, read-out: Ec MIC
# [5] = Partition coefficient log Po/w by HPLC-PDA (OECD method); settings: for chromatographic logP: n-octanol/water (from HPLC retention on a C-18 column)
# [6] = system: Staphylococcus aureus (ATCC 14458); test: Antibacterial broth microdilution (MIC/MBC), S. aureus; settings: for MIC: ATCC14458, 24 h; for MBC: ATCC14458, read-out: Sa MBC
# [7] = system: Mycobacterium tuberculosis H37Rv (ATCC 27294); test: Antitubercular REMA (Resazurin Microtiter Assay); format: cell-based; settings: M. tuberculosis H37Rv, REMA, 7 days, lowest concentration giving 90% inhibition of growth, read-out: Mt MIC
# [8] = read-out: Ss MIC, Streptococcus sanguinis, broth microdilution, 24 h, tested 3.9 to 500 µM
# [9] = read-out: Sa MIC, Staphylococcus aureus, broth microdilution, 24 h, tested 3.9 to 500 µM
# [10] = Mycobacterium tuberculosis, 168 h
# [11] = broth microdilution, 24 h, tested 3.9 to 500 µM
Compound,MIC [1] [µM],MIC [2] [µM],"MIC [3, 8] [µM]",MIC [4] [µM],chromatographic logP [5],"MIC [6, 9] [µM]","MIC [7, 10] [µM]",also measured
"[H]/N=C(\N/C(=N/[H])NCCCCCCNC(=N)NC(=N)Nc1ccc(Cl)cc1)Nc1ccc(Cl)cc1 [CHX, chlorhexidine, reference compound]",19.4,2.4,4.7,,,,,MBC [2]: 4.7 µM; MBC [3]: 9.5 µM
"O=C(/C=C/C=C/c1ccccc1)c1ccccc1 [Compound 2, (2E,4E)-1,5-diphenylpenta-2,4-dien-1-one]",> 500,> 500,> 500,> 500,3.2,> 500,57.2 to 70.9,MIC [7]: 57.2 µM
"Nc1cccc(C(=O)/C=C/C=C/c2ccccc2)c1 [Compound 5, (2E,4E)-1-(3-aminophenyl)-5-phenylpenta-2,4-dien-1-one]",> 500,313,> 500,> 500,2.5,> 500,> 200,MBC [2]: 313 µM
"COc1cccc(C(=O)/C=C/C=C/c2ccccc2)c1 [Compound 6, (2E,4E)-1-(3-methoxyphenyl)-5-phenylpenta-2,4-dien-1-one]",> 500,≥ 296,≥ 296,> 500,3.3,≥ 296,> 200,MBC [6]: 296 µM
"COc1ccc(C(=O)/C=C/C=C/c2ccccc2)cc1 [Compound 7, (2E,4E)-1-(4-methoxyphenyl)-5-phenylpenta-2,4-dien-1-one]",> 500,≥ 296,≥ 296,> 500,3.2,≥ 296,57.2 to 70.9,MIC [7]: 66.6 µM
"COc1cc(C(=O)/C=C/C=C/c2ccccc2)ccc1O [Compound 9, (2E,4E)-1-(4-hydroxy-3-methoxyphenyl)-5-phenylpenta-2,4-dien-1-one]",> 500,> 500,> 500,> 500,2.7,279,83.5,MBC [6]: 279 µM
"O=C(/C=C/C=C/c1ccccc1)c1ccc(F)cc1 [Compound 10, (2E,4E)-1-(4-fluorophenyl)-5-phenylpenta-2,4-dien-1-one]",> 500,> 500,> 500,> 500,3.3,> 500,57.2 to 70.9,MIC [7]: 67.4 µM
"O=C(/C=C/C=C/c1ccccc1)c1ccc(Cl)c(Cl)c1 [Compound 13, (2E,4E)-1-(3,4-dichlorophenyl)-5-phenylpenta-2,4-dien-1-one]",> 500,> 500,> 500,> 500,4.1,> 500,> 200,
"NNC(=O)c1ccncc1 [ISO, isoniazid, reference compound]",,,,,,,0.3,
"CC1(C)S[C@@H]2[C@H](NC(=O)Cc3ccccc3)C(=O)N2[C@H]1C(=O)O [PEN, Penicillin G, reference compound]",,,0.4,118,,,,MBC [3]: 0.4 µM
"CN[C@H](CC(C)C)C(=O)N[C@H]1C(=O)N[C@@H](CC(N)=O)C(=O)N[C@H]2C(=O)N[C@H]3C(=O)N[C@H](C(=O)N[C@H](C(=O)O)c4cc(O)cc(O)c4-c4cc3ccc4O)[C@H](O)c3ccc(c(Cl)c3)Oc3cc2cc(c3O[C@@H]2O[C@H](CO)[C@@H](O)[C@H](O)[C@H]2O[C@H]2C[C@](C)(N)[C@H](O)[C@H](C)O2)Oc2ccc(cc2Cl)[C@H]1O [VAN, vancomycin, reference compound]",,,,53.8,,,,MIC ([6]; read-out: Sa MIC): 3.3 µM; MBC [6]: 6.8 µM; MIC ([3]; read-out: Ss MIC): 3.3 µM; MBC [3]: 3.3 µM
"(2E,4E)-1-(3,4-methylenedioxy)-5-phenylpenta-2,4-dien-1-one [Compound 8]",,,,,,,,"Ec MIC ([4]; broth microdilution, 24 h): >500 µM; log Po/w ([5]; n-octanol/water, HPLC-PDA method, MeOH:H2O (3:1)): 3.2; Sa MIC [6, 11]: >500 µM; Pa MIC ([1]; broth microdilution, 24 h): >500 µM; Sm MIC [2, 11]: >500 µM; Ss MIC [3, 11]: >500 µM"
